Source: patent US20230407243A1, “GENETIC PLATFORM TO INVESTIGATE THE FUNCTIONS OF BACTERIAL DRUG EFFLUX PUMPS” (priority 2022, published 2023)

How the values were obtained:
Type in all cases: cell-based, Escherichia coli
EKO-35 araC::acrB = assay: MIC susceptibility profiling, efflux platform
Description: (§1) Single colonies were used to inoculate 3 mL of LB followed by incubation at 37° C. for 18 h with aeration at 220 rpm. The bacterial cells were harvested by centrifugation and resuspended in phosphate buffered saline (PBS) ([pH 7.4], 137 mM NaCl (Bioshop), 2.7 mM KCl (Bioshop), 10 mM Na2PO4 (Bioshop) and 1.8 mM K2PO4) to an OD600 nm˜1.0, followed by 1/2000 dilution into MHB II.
(§2) To a 384-well microtiter plate (Corning, untreated polystyrene), 500 nL of compound was dispensed, in duplicate, and serially titrated 2-fold using an Echo 550 acoustic liquid dispenser (Labcyte Inc.). […] As a solvent control, 500 nL of DMSO was applied to wells that contained no compound. Using a multichannel pipette, 50 μL of the prepared bacterial inoculum was applied to each well. To enable background correction post-incubation, the OD600 nm was measured (Biotek Synergy Neo2 microplate reader) prior to incubation. The plates were incubated at 37° C. with aeration at 900 rpm for 18 h. The plates were equilibrated to room temperature and the OD600 nm measured using a BioTek Synergy Neo2 microplate reader. Data was analyzed in both Prism (GraphPad, Version 9.2.0) and Microsoft Excel (Version 16.53). Raw data were input into Microsoft Excel and the pre-incubation OD600 nm measurements were subtracted from the post-incubation OD600 nm measurements. These corrected measurements were input into Prism 9 as a grouped analysis. […] All other MIC values were adjusted accordingly and visualized using the single-color scale grouped heat map function. Identification of compound chemical properties was achieved using DataWarrior (Version 5.5.0). Using PubChem, the SMILES chemical notation for each compound was obtained and compiled in Microsoft Excel. The resulting spreadsheet was input into DataWarrior and properties were calculated from the compound chemical structures.

EKO-35 araC::emrKY = assay: MIC susceptibility profiling, efflux platform
Description: as §1, §2

EKO-35 araC::acrBD408A = assay: MIC susceptibility profiling, efflux platform
Description: as §1, §2

[1] = test system: EKO-35 araC::mexCD (MexCD from P. aeruginosa); assay: MIC susceptibility profiling, efflux platform
Description: as §1, §2

EKO-35 araC::mdtBC = assay: MIC susceptibility profiling, efflux platform
Description: as §1, §2

EKO-35 araC::acrD = assay: MIC susceptibility profiling, efflux platform
Description: as §1, §2

EKO-35 araC::acrEF = assay: MIC susceptibility profiling, efflux platform
Description: as §1, §2

EKO-35 araC::macAB = assay: MIC susceptibility profiling, efflux platform
Description: as §1, §2

EKO-35 araC::emrAB = assay: MIC susceptibility profiling, efflux platform
Description: as §1, §2

EKO-35 araC::mdtEF = assay: MIC susceptibility profiling, efflux platform
Description: as §1, §2

ΔtolC-Pore = assay: microbe, parasite or virus in culture; conditions: technical duplicate
Description: (§3) For genomic integration of the pore, the fhuA ΔC/Δ4L gene and the adjacent gentamicin resistance cassette were amplified using a high-fidelity polymerase and the fhuA_40_Up/gImS_3680_Low primers (Table 4). Integration of the pore gene was performed as described above. The pore gene was introduced into the intergenic region between the glmS and pstS genes, with gene expression under the control of a constitutive promoter (Kearse, M. et al., 2012). Genomic integrations were verified using PCR (Primers: pstS_520_Up/glmS_3680_Low, Table 4). Successful integrations were transformed with pCP20 to remove the gentamicin resistance cassette as previously described. Activity of the pore was confirmed through susceptibility testing with the large antibiotic vancomycin prior to phenotypic profiling and further susceptibility testing.
as §1, §2

wild-type (WT) K-12-Pore = assay: microbe, parasite or virus in culture; conditions: technical duplicate
Description: as §3, §1, §2

[2] = test system: wild-type E. coli K-12 str. BW25113; assay: microbe, parasite or virus in culture; conditions: technical duplicate
Description: as §1, §2

E. coli EKO-35 = assay: microbe, parasite or virus in culture
Description: as §1, §2

E. coli ΔtolC = assay: microbe, parasite or virus in culture; conditions: technical duplicate
Description: as §1, §2

[3] = test system: EKO-35 araC::acrBD408A Pore; assay: MIC susceptibility profiling, porinated efflux platform
Description: as §3, §1, §2

EKO-35 araC::emrKY Pore = assay: as above
Description: as §3, §1, §2

EKO-35 araC::acrD Pore = assay: as above
Description: as §3, §1, §2

EKO-35-Pore = assay: MIC susceptibility profiling, porinated strain
Description: as §3, §1, §2

[4] = Table 13A, non-porinated, technical duplicate
[5] = Table 13B, non-porinated, technical duplicate
[6] = Table 14A, porinated, technical duplicate

SMILES: N#CC(C#N)=NNc1cccc(Cl)c1 [CCCP]
- Fold change of MICs (EKO-35 araC::acrB; EKO-35 araC::acrB compared to EKO-35): 1 fold
- Minimum Inhibitory Concentration, EKO-35 araC::acrB (EKO-35 araC::acrB; [4]): 12.5 µg/mL
- Fold change of MICs (EKO-35 araC::emrKY; EKO-35 araC::emrKY compared to EKO-35): 1 fold
- Minimum Inhibitory Concentration, EKO-35 araC::emrKY (EKO-35 araC::emrKY; [5]): 12.5 µg/mL
- Fold change of MICs (EKO-35 araC::acrBD408A; EKO-35 araC::acrBD408A compared to EKO-35): 1 fold
- Minimum Inhibitory Concentration, EKO-35 araC::acrBD408A (EKO-35 araC::acrBD408A; [5]): 12.5 µg/mL
- Fold change of MICs ([1]; EKO-35 araC::mexCD compared to EKO-35): 1 fold
- Minimum Inhibitory Concentration, EKO-35 araC::mexCD [1, 5]: 12.5 µg/mL
- Fold change of MICs (EKO-35 araC::mdtBC; EKO-35 araC::mdtBC compared to EKO-35): 1 fold
- Minimum Inhibitory Concentration, EKO-35 araC::mdtBC (EKO-35 araC::mdtBC; [5]): 12.5 µg/mL
- Fold change of MICs (EKO-35 araC::acrD; EKO-35 araC::acrD compared to EKO-35): 1 fold
- Minimum Inhibitory Concentration, EKO-35 araC::acrD (EKO-35 araC::acrD; [4]): 6.25 µg/mL
- Fold change of MICs (EKO-35 araC::acrEF; EKO-35 araC::acrEF compared to EKO-35): 1 fold
- Minimum Inhibitory Concentration, EKO-35 araC::acrEF (EKO-35 araC::acrEF; [4]): 12.5 µg/mL
- Fold change of MICs (EKO-35 araC::macAB; EKO-35 araC::macAB compared to EKO-35): 1 fold
- Minimum Inhibitory Concentration, EKO-35 araC::macAB (EKO-35 araC::macAB; [5]): 12.5 µg/mL
- Fold change of MICs (EKO-35 araC::emrAB; EKO-35 araC::emrAB compared to EKO-35): 4 fold
- efflux pump-mediated resistance vs EKO-35 (EKO-35 araC::emrAB; EmrAB): conferred resistance
- Minimum Inhibitory Concentration, EKO-35 araC::emrAB (EKO-35 araC::emrAB; [5]): 50 µg/mL
- Fold change of MICs (EKO-35 araC::mdtEF; EKO-35 araC::mdtEF compared to EKO-35): 1 fold
- Minimum Inhibitory Concentration, EKO-35 araC::mdtEF (EKO-35 araC::mdtEF; [4]): 12.5 µg/mL
- Minimum inhibitory concentration (MIC), Pore ΔtolC (ΔtolC-Pore; Table 10, with pore): 0.391 µg/mL
- Minimum inhibitory concentration, ΔtolC-Pore (ΔtolC-Pore; Table 14A, porinated): 0.391 µg/mL
- Minimum inhibitory concentration (MIC), Pore K-12 (wild-type (WT) K-12-Pore; Table 10, with pore): 12.5 µg/mL
- Minimum inhibitory concentration, K-12 (WT)-Pore (wild-type (WT) K-12-Pore; Table 14A, porinated): 12.5 µg/mL
- Minimum inhibitory concentration (MIC), K-12 ([2]; Table 10, without pore): 25 µg/mL
- Minimum Inhibitory Concentration, K-12 ([2]; Table 13A, non-porinated): 25 µg/mL
- Fold change of MICs (E. coli EKO-35; EKO-35 compared to EKO-35 (reference)): 1 fold
- Minimum inhibitory concentration (MIC), EKO-35 (E. coli EKO-35; Table 10, without pore, technical duplicate): 12.5 µg/mL
- Minimum Inhibitory Concentration, EKO-35 (E. coli EKO-35; [4]): 12.5 µg/mL
- Minimum inhibitory concentration (MIC), ΔtolC (E. coli ΔtolC; Table 10, without pore): 0.781 µg/mL
- Minimum Inhibitory Concentration, ΔtolC (E. coli ΔtolC; Table 13A, non-porinated): 0.781 µg/mL
- Fold changes of MICs ([3]; EKO-35 araC::acrBD408A Pore compared to EKO-35-Pore): 1 fold
- Minimum inhibitory concentration ([3]; EKO-35 araC::acrBD408A Pore, technical duplicate): 6.25 µg/mL
- Fold changes of MICs (EKO-35 araC::emrKY Pore; EKO-35 araC::emrKY Pore compared to EKO-35-Pore): 1 fold
- Minimum inhibitory concentration (EKO-35 araC::emrKY Pore; EKO-35 araC::emrKY Pore, technical duplicate): 6.25 µg/mL
- Fold changes of MICs (EKO-35 araC::acrD Pore; EKO-35 araC::acrD Pore compared to EKO-35-Pore): 1 fold
- Minimum inhibitory concentration, EKO-35 araC::acrD Pore (EKO-35 araC::acrD Pore; [6]): 6.25 µg/mL
- Fold changes of MICs (EKO-35-Pore; EKO-35-Pore compared to EKO-35-Pore (reference)): 1 fold
- Minimum inhibitory concentration (MIC), Pore EKO-35 (EKO-35-Pore; Table 10, with pore, technical duplicate): 6.25 µg/mL
- Minimum inhibitory concentration, EKO-35-Pore (EKO-35-Pore; [6]): 6.25 µg/mL
